Molecules are shown by their SMILES. pIC50: −log10 of the molar value.

The solubility is how much of the substance goes into solution per volume. A high value points to a readily soluble substance. The term pIC50 denotes −log10 of the IC50, conventionally taken in molar units. As a reminder, the inhibition is the change of the read-out against control, counted positive when it falls. Usually ED50 stands for the dose at which the effect has come halfway, by size or by number of responders.

Test system in one data set: not listed separately
Nature of the data set: Tested for solubility in water at pH 7.4. The class given is ADME.
Conditions: not given
The compound `Br.O=C(O)C1CCN(Cc2cc3nc(O)c(O)nc3cc2[N+](=O)[O-])CC1` returned a solubility of 1680 µg/mL.

Another data set addresses Glutamate receptors; NMDA/AMPA. Nature of the data set: In vitro binding affinity to the AMPA receptor using [3H]AMPA binding assay.
Conditions: not given
The class given is protein-complex assay.
As to `Br.O=[N+]([O-])c1cc2nc(O)c(O)nc2cc1CN1CC=CC1`, the pIC50 is 6.31.
As for `O=[N+]([O-])c1cc2nc(O)c(O)nc2cc1CN1CCCCCC1`, the pIC50 was 6.24. This pIC50 and that of the compound before are within 0.2 log units of each other.
`O=[N+]([O-])c1cc2nc(O)c(O)nc2cc1CN1CCNCC1` showed a negative-log IC50 (pIC50) of 4.96.
In turn, `O=C(O)C1CCCN(Cc2cc3nc(O)c(O)nc3cc2Br)C1` (stereo not given) showed a pIC50 of 5.60.
Same read-out and setting: the same measure for `COC1CCN(Cc2cc3nc(O)c(O)nc3cc2[N+](=O)[O-])CC1`: 6.37.
The compound `O=C(O)C1(c2ccccc2)CCN(Cc2cc3nc(O)c(O)nc3cc2[N+](=O)[O-])CC1` gave a negative-log IC50 (pIC50) of 5.70.
`Br.CC1CCN(Cc2cc3nc(O)c(O)nc3cc2[N+](=O)[O-])CC1` gave a negative-log IC50 (pIC50) of 6.43.
In the case of `CC1CCCN(Cc2cc3nc(O)c(O)nc3cc2[N+](=O)[O-])C1` (stereo not given), the pIC50 is 6.22. This pIC50 is 0.21 log units lower than that of the compound before.
With `O=[N+]([O-])c1cc2nc(O)c(O)nc2cc1CN1CCC1`, the pIC50 is 5.82.
In the case of `Br.O=[N+]([O-])c1cc2nc(O)c(O)nc2cc1CN1CCCC1`, the pIC50 was 6.55.
As to `Br.O=[N+]([O-])c1cc2nc(O)c(O)nc2cc1CN1CCC(O)C1` (stereo not given), the pIC50 was 6.48.
With `O=[N+]([O-])c1cc2nc(O)c(O)nc2cc1CN1CCC(c2ccccc2)CC1`, the pIC50 is 6.37.
On the same count and under the same terms, the same measure for `CCN(CC)Cc1cc2nc(O)c(O)nc2cc1[N+](=O)[O-]`: 6.08; for `O=[N+]([O-])c1cc2nc(O)c(O)nc2cc1CN1CCCC(CO)C1` (stereo not given): 6.28; for `NC(=O)C1CCN(Cc2cc3nc(O)c(O)nc3cc2[N+](=O)[O-])CC1`: 6.12.
Compound `CN1CCN(Cc2cc3nc(O)c(O)nc3cc2[N+](=O)[O-])CC1` gave a pIC50 of 5.47.
`O=[N+]([O-])c1cc2nc(O)c(O)nc2cc1CN1CCCC1CO` (stereo not given) had a pIC50 of 6.15.
In turn, `O=[N+]([O-])c1cc2nc(O)c(O)nc2cc1CN1CCC(O)CC1` gave a pIC50 of 6.51.
Still for that read-out and setting: the result for `O=[N+]([O-])c1cc2nc(O)c(O)nc2cc1CN1CC=CCC1` reads 6.44; that for `O=[N+]([O-])c1cc2nc(O)c(O)nc2cc1CN1CCCC(O)C1` (stereo not given), 6.37.
`O=[N+]([O-])c1cc2nc(O)c(O)nc2cc1CN1CCOCC1` had a negative-log IC50 (pIC50) of 6.18.
In turn, `O=[N+]([O-])c1cc2nc(O)c(O)nc2cc1CN1CCCCC1` had a pIC50 of 6.54.
Consider `Br.O=C(O)C1CCN(Cc2cc3nc(O)c(O)nc3cc2[N+](=O)[O-])CC1`, for which the negative-log IC50 (pIC50) is 7.15.
Take `CC1CN1Cc1cc2nc(O)c(O)nc2cc1[N+](=O)[O-]` (stereo not given): the negative logarithm of the IC50 (pIC50) is 5.66.
As for `O=C(O)[C@H]1CCCN1Cc1cc2nc(O)c(O)nc2cc1[N+](=O)[O-]`, the pIC50 is 6.34.
The same measure, in the same setting: the same measure for `CCOC(=O)C1CCN(Cc2cc3nc(O)c(O)nc3cc2[N+](=O)[O-])CC1`: 6.46; for `O=C(O)C1CCN(Cc2cc3nc(O)c(O)nc3cc2Br)CC1`: 6.05.
For `O=C(O)[C@H]1[C@H](O)CCN1Cc1cc2nc(O)c(O)nc2cc1[N+](=O)[O-]`, the pIC50 is 5.68.

A further data set concerns the target Glutamate receptor ionotropic, AMPA (Rattus norvegicus) (UniProt P19491+P19492+P19493+P19490). Nature of the data set: Tested for in vitro binding affinity against AMPA receptor using [3H]AMPA binding assay at a concentration of 1 uM. The class given is protein-complex assay.
Conditions: not given
On to `O=C(O)C1CCN(Cc2cc3nc(O)c(O)nc3c([N+](=O)[O-])c2Br)CC1`, for which the inhibition came to 15%.
Consider `O=C(O)C1CCCCN1Cc1cc2nc(O)c(O)nc2cc1Br` (stereo not given), for which the inhibition amounted to 18%.

The next data set has as its system Mus musculus. Nature of the data set: Tested for anticonvulsion activity in the electroshock-induced convulsion assays in mice after 30 min of ip administration. The class given is functional. The following applies: 0.5 h.
Compound `Br.CC1CCN(Cc2cc3nc(O)c(O)nc3cc2[N+](=O)[O-])CC1` registered a median effective dose (ED50) of 33 mg/kg.
`Br.O=[N+]([O-])c1cc2nc(O)c(O)nc2cc1CN1CCC(O)C1` (stereo not given): the ED50 is 34 mg/kg.
The same measure, in the same setting: the result for `Br.O=C(O)C1CCN(Cc2cc3nc(O)c(O)nc3cc2[N+](=O)[O-])CC1` reads 44 mg/kg.

A further data set concerns Mus musculus. Nature of the data set: Tested for anticonvulsion activity in the metrazole-induced convulsion assays in mice after 30 min of ip administration. The class given is functional. The note with it: 0.5 h.
Turning to `Br.O=[N+]([O-])c1cc2nc(O)c(O)nc2cc1CN1CC=CC1`, it took a dose of 35 mg/kg to reach the 50% effect level (ED50).
As for `Br.CC1CCN(Cc2cc3nc(O)c(O)nc3cc2[N+](=O)[O-])CC1`, the median effective dose (ED50) amounted to 16 mg/kg.
Still for that read-out and setting: the result for `Br.O=[N+]([O-])c1cc2nc(O)c(O)nc2cc1CN1CCCC1` reads 26 mg/kg.

For a further data set, the system named is Mus musculus. Nature of the data set: Tested for anticonvulsion activity in the mice after 1 hr pretreatment of oral administration. The class given is functional.
Conditions: not given
As for `Br.CC1CCN(Cc2cc3nc(O)c(O)nc3cc2[N+](=O)[O-])CC1`, the 50% effective dose (ED50) was 54 mg/kg.

The test system of another data set is Mus musculus. The data set is described as follows: Tested for anticonvulsion activity in the electroshock-induced convulsion assays in mice at 50 mg/kg after 30 min (i.p. administration ). The class given is functional. The following applies: route intraperitoneal.
`Br.O=[N+]([O-])c1cc2nc(O)c(O)nc2cc1CN1CCCC1` yielded a Protection of 40%.

A further data set has as its system Mus musculus. Nature of the data set: Tested for anticonvulsion activity in the electroshock-inducedconvulsion assays in mice at 50 mg/kg after 30 min (i.p. administration ). The class given is functional. The following applies: route intraperitoneal.
With `Br.O=[N+]([O-])c1cc2nc(O)c(O)nc2cc1CN1CC=CC1`, the Protection is 60%.

The next data set addresses Glutamate receptor ionotropic, NMDA 1 (Rattus norvegicus, UniProt P35439). Nature of the data set: Tested for in vitro binding affinity against glycine-bining site of NMDA receptor using [3H]MDL-105519 binding assay.
Conditions: not given
`O=[N+]([O-])c1cc2nc(O)c(O)nc2cc1CN1CCC1` had a pIC50 of 5.42.
On to `O=[N+]([O-])c1cc2nc(O)c(O)nc2cc1CN1CCC(c2ccccc2)CC1`, for which the negative logarithm of the IC50 (pIC50) was 6.48.
For `Br.O=C(O)C1CCN(Cc2cc3nc(O)c(O)nc3cc2[N+](=O)[O-])CC1`, the negative logarithm of the IC50 (pIC50) is 5.41.
Still for that read-out and setting: the result for `O=C(O)C1CCCCN1Cc1cc2[nH]c(=O)c(=O)[nH]c2cc1Br` (stereo not given) reads 6.08; that for `CCOC(=O)C1CCN(Cc2cc3nc(O)c(O)nc3cc2[N+](=O)[O-])CC1`, 6.23.

The record behind these values is ChEMBL document CHEMBL1130976, “5-Aminomethylquinoxaline-2,3-diones. Part I: A novel class of AMPA receptor antagonists” (Bioorg Med Chem Lett, 1998).
